The values below come from patent US12202835B2, “Substituted aromatic ring-linked dioxinoquinazolines and dioxinoquinolines as kinase inhibitors” (BEIJING SCITECH-MQ PHARMACEUTICALS LIMITED, priority 2018, dated 2025).

Where two headings read alike, the source gives them in different places.

Assay [1] deals with MHCC97H cells. Briefly: Assay for inhibiting the proliferation of MHCC97H cells (CCK-8). The class given is cell-based. In outline: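 Cells seeded in 96-well plates overnight, then exposed 72 h to 9 three-fold dilutions of compound (0.25% DMSO final). Viability by CCK-8 (1-2 h at 37° C., OD 450 nm), survival normalized to untreated and cell-free blanks; IC50 by curve fitting.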

The test system of assay [2] is EBC1 cells. In words: Assay for inhibiting the proliferation of EBC1 cells (CCK-8). The format is cell-based. The protocol: In particular, the method of the assay of small molecular compounds for inhibiting cell proliferation is as follows: • 1. Cells cultured to a logarithmic growth phase (adherent cells need to be digested with trypsin and neutralized) were taken, pipetted evenly, transferred to a 15 mL centrifuge tube, and centrifuged at 1000 rpm at room temperature for 4 minutes; • 2. The supernatant was discarded; 5 mL of complete medium was added and pipetted evenly; 10 μL of cell suspension was taken out, mixed well with 10 μL of 0.4% trypan blue, and counted under a cell counter; the proportion of living cells was ensured to be above 90%; • 3. 80 μL of cell suspension per well was seeded into a 96-well plate according to the conditions shown in the attached table, and cultured overnight; in the outer 36 wells of the 96-well plate, no cells were added but only sterile water was added; only the inner 60 wells were used for cell assay and control; • 4. 5×compound dilution: the compounds were serially diluted 3-fold to obtain a total of 9 concentrations; 80-fold overall dilution was completed with complete medium, the resulting concentration was 5 times the final drug concentration, and DMSO concentration was 1.25%; • 5. 20 μL of the corresponding compounds with different concentration gradients were added to each well of assay wells of the 96-well plate; 20 μL of complete medium was added to positive and negative control wells and shaken well; and the final concentration of DMSO in each well was 0.25%; • 6. After 72 hours of incubation, 10 μL of CCK-8 reagent was added to each well and further incubated at 37° C. for 1-2 hours; and the OD value was read at 450 nm; • 7. Cell survival rate (%)=[(As−Ab)/(Ac−Ab)]*100% • As: Assay well (medium containing cells, CCK-8, compound), • Ac: Control well (medium containing cells, CCK-8), • Ab: Blank well (CCK-8, medium without cell and compound), • 8. The values were imported into Graphpad Prism 5 software for IC50 calculation.

By IC50 is commonly meant the concentration needed to halve the response being measured. A higher IC50 goes with a need for much substance. As for `O=C(Nc1ccc(Oc2ncnc3cc(OCCCN4CCOCC4)c4c(c23)OCCO4)c(F)c1)c1cccn(-c2ccc(F)cc2)c1=O` [Example 4, N-(3-fluoro-4-((5-(3-morpholinopropoxy)-2,3-dihydro-[1,4]dioxino[2,3-f]quinazolin-10-yl)oxy)phenyl)-1-(4-fluorophenyl)-2-oxo-1,2-dihydropyridine-3-carboxamide], the IC50 in assay [1] (Homo sapiens) is ≤ 50 nM; in assay [2] (Homo sapiens, EBC-1), ≤ 50 nM.

As for `COc1ccn(-c2ccc(F)cc2)c(=O)c1C(=O)Nc1ccc(Oc2ncnc3cc(OCCCN4CCOCC4)c4c(c23)OCCO4)c(F)c1` [Example 5, N-(3-fluoro-4-((5-(3-morpholinopropoxy)-2,3-dihydro-[1,4]dioxino[2,3-f]quinazolin-10-yl)oxy)phenyl)-1-(4-fluorophenyl)-4-methoxy-2-oxo-1,2-dihydropyridine-3-carboxamide], the half-maximal inhibitory concentration (IC50) is 50 to 200 nM in assay [1] (Homo sapiens) and ≤ 50 nM in assay [2] (Homo sapiens, EBC-1).

As for `CCOc1ccn(-c2ccc(F)cc2)c(=O)c1C(=O)Nc1ccc(Oc2ncnc3cc(OCCCN4CCOCC4)c4c(c23)OCCO4)c(F)c1` [Example 6, N-(3-fluoro-4-((5-(3-morpholinopropoxy)-2,3-dihydro-[1,4]dioxino[2,3-f]quinazolin-10-yl)oxy)phenyl)-1-(4-fluorophenyl)-4-ethoxy-2-oxo-1,2-dihydropyridine-3-carboxamide], the IC50 is 50 to 200 nM in assay [1] (Homo sapiens) and ≤ 50 nM in assay [2] (Homo sapiens, EBC-1).

For the compound `COc1cc2nccc(Oc3ccc(NC(=O)c4cn(C)c(=O)n(-c5ccc(F)cc5)c4=O)cc3F)c2c2c1OCCO2` [Example 13, N-(3-fluoro-4-((5-methoxy-2,3-dihydro-[1,4]dioxino[2,3-f]quinolin-10-yl)oxy)phenyl)-3-(4-fluorophenyl)-1-methyl-2,4-dioxo-1,2,3,4-tetrahydropyrimidine-5-carboxamide], the IC50 in assay [1] (Homo sapiens) was in the range of 50 to 200 nM; in assay [2] (Homo sapiens, EBC-1), 50 to 200 nM.

On to `COc1cc2nccc(Oc3ccc(NC(=O)c4cccn(-c5ccc(F)cc5)c4=O)cc3F)c2c2c1OCCO2` [Example 17, N-(3-fluoro-4-((5-methoxy-2,3-dihydro-[1,4]dioxino[2,3-f]quinolin-10-yl)oxy)phenyl)-1-(4-fluorophenyl)-2-oxo-1,2-dihydropyridine-3-carboxamide], for which the 50% inhibitory concentration (IC50) in assay [1] (Homo sapiens) was ≤ 50 nM; in assay [2] (Homo sapiens, EBC-1) it was ≤ 50 nM.

As to `COc1cc2nccc(Oc3ccc(NC(=O)c4c(OC)ccn(-c5ccc(F)cc5)c4=O)cc3F)c2c2c1OCCO2` [Example 18, N-(3-fluoro-4-((5-methoxy-2,3-dihydro-[1,4]dioxino[2,3-f]quinolin-10-yl)oxy)phenyl)-1-(4-fluorophenyl)-4-methoxy-2-oxo-1,2-dihydropyridine-3-carboxamide], the IC50 in assay [1] (Homo sapiens) is ≤ 50 nM; in assay [2] (Homo sapiens, EBC-1), ≤ 50 nM.

For `CCOc1ccn(-c2ccc(F)cc2)c(=O)c1C(=O)Nc1ccc(Oc2ccnc3cc(OC)c4c(c23)OCCO4)c(F)c1` [Example 19, N-(3-fluoro-4-((5-methoxy-2,3-dihydro-[1,4]dioxino[2,3-f]quinolin-10-yl)oxy)phenyl)-1-(4-fluorophenyl)-4-ethoxy-2-oxo-1,2-dihydropyridine-3-carboxamide], the IC50 in assay [1] (Homo sapiens) was ≤ 50 nM; in assay [2] (Homo sapiens, EBC-1), ≤ 50 nM.

Regarding `COc1ccn(-c2ccc(F)cc2)c(=O)c1C(=O)Nc1ccc(Oc2ccnc3cc(OCCCN4CCOCC4)c4c(c23)OCCO4)c(F)c1` [Example 21, N-(3-fluoro-4-((5-(3-morpholinopropoxy)-2,3-dihydro-[1,4]dioxino[2,3-f]quinolin-10-yl)oxy)phenyl)-1-(4-fluorophenyl)-4-methoxy-2-oxo-1,2-dihydropyridine-3-carboxamide], the IC50 in assay [1] (Homo sapiens) was ≤ 50 nM; in assay [2] (Homo sapiens, EBC-1), ≤ 50 nM.

As to `CCOc1ccn(-c2ccc(F)cc2)c(=O)c1C(=O)Nc1ccc(Oc2ccnc3cc(OCCCN4CCOCC4)c4c(c23)OCCO4)c(F)c1` [Example 22, N-(3-fluoro-4-((5-(3-morpholinopropoxy)-2,3-dihydro-[1,4]dioxino[2,3-f]quinolin-10-yl)oxy)phenyl)-1-(4-fluorophenyl)-4-ethoxy-2-oxo-1,2-dihydropyridine-3-carboxamide], the IC50 in assay [1] (Homo sapiens) is ≤ 50 nM; in assay [2] (Homo sapiens, EBC-1), ≤ 50 nM.

As for `COc1cn(-c2ccc(F)cc2C)nc1C(=O)Nc1ccc(Oc2ccnc3cc(OCCCN4CCOCC4)c4c(c23)OCCO4)c(F)c1` [Example 27, 1-(4-fluoro-2-methylphenyl)-N-(3-fluoro-4-((5-(3-morpholinopropoxy)-2,3-dihydro-[1,4]dioxino[2,3-f]quinolin-10-yl)oxy)phenyl)-4-methoxy-1H-pyrazole-3-carboxamide], the IC50 in assay [1] (Homo sapiens) was 50 to 200 nM; in assay [2] (Homo sapiens, EBC-1) it was 50 to 200 nM.

In the case of `O=C(Nc1ccc(Oc2ccnc3cc(OCCCN4CCCCC4)c4c(c23)OCCO4)c(F)c1)c1cccn(-c2ccc(F)cc2)c1=O` [Example 31, N-(3-fluoro-4-((5-(3-(piperidin-1-yl)propoxy)-2,3-dihydro-[1,4]dioxino[2,3-f]quinolin-10-yl)oxy)phenyl)-1-(4-fluorophenyl)-2-oxo-1,2-dihydropyridine-3-carboxamide], the IC50 in assay [1] and in assay [2] was ≤ 50 nM in each case.

Regarding `COc1ccn(-c2ccc(F)cc2)c(=O)c1C(=O)Nc1ccc(Oc2ccnc3cc(OCCCN4CCCCC4)c4c(c23)OCCO4)c(F)c1` [Example 32, N-(3-fluoro-4-((5-(3-(piperidin-1-yl)propoxy)-2,3-dihydro-[1,4]dioxino[2,3-f]quinolin-10-yl)oxy)phenyl)-1-(4-fluorophenyl)-4-methoxy-2-oxo-1,2-dihydropyridine-3-carboxamide], the concentration for half-maximal inhibition (IC50) was 50 to 200 nM in assay [1] (Homo sapiens) and ≤ 50 nM in assay [2] (Homo sapiens, EBC-1).

On to `CCOc1ccn(-c2ccc(F)cc2)c(=O)c1C(=O)Nc1ccc(Oc2ccnc3cc(OCCCN4CCCCC4)c4c(c23)OCCO4)c(F)c1` [Example 33, N-(3-fluoro-4-((5-(3-(piperidin-1-yl)propoxy)-2,3-dihydro-[1,4]dioxino[2,3-f]quinolin-10-yl)oxy)phenyl)-1-(4-fluorophenyl)-4-ethoxy-2-oxo-1,2-dihydropyridine-3-carboxamide], for which the IC50 in assay [1] (Homo sapiens) is ≤ 50 nM; in assay [2] (Homo sapiens, EBC-1), ≤ 50 nM.

As for `COCCOc1cc2nccc(Oc3ccc(NC(=O)c4cccn(-c5ccc(F)cc5)c4=O)cc3F)c2c2c1OCCO2` [Example 34, N-(3-fluoro-4-((5-(2-methoxyethoxy)-2,3-dihydro-[1,4]dioxino[2,3-f]quinolin-10-yl)oxy)phenyl)-1-(4-fluorophenyl)-2-oxo-1,2-dihydropyridine-3-carboxamide], the IC50 in assay [1] (Homo sapiens) is ≤ 50 nM; in assay [2] (Homo sapiens, EBC-1), ≤ 50 nM.

`COCCOc1cc2nccc(Oc3ccc(NC(=O)c4c(OC)ccn(-c5ccc(F)cc5)c4=O)cc3F)c2c2c1OCCO2` [Example 35, N-(3-fluoro-4-((5-(2-methoxyethoxy)-2,3-dihydro-[1,4]dioxino[2,3-f]quinolin-10-yl)oxy)phenyl)-1-(4-fluorophenyl)-4-methoxy-2-oxo-1,2-dihydropyridine-3-carboxamide]: the IC50 is ≤ 50 nM in assay [1] (Homo sapiens) and ≤ 50 nM in assay [2] (Homo sapiens, EBC-1).

For the compound `CCOc1ccn(-c2ccc(F)cc2)c(=O)c1C(=O)Nc1ccc(Oc2ccnc3cc(OCCOC)c4c(c23)OCCO4)c(F)c1` [Example 36, N-(3-fluoro-4-((5-(2-methoxyethoxy)-2,3-dihydro-[1,4]dioxino[2,3-f]quinolin-10-yl)oxy)phenyl)-1-(4-fluorophenyl)-4-ethoxy-2-oxo-1,2-dihydropyridine-3-carboxamide], the IC50 was ≤ 50 nM in assay [1] (Homo sapiens) and ≤ 50 nM in assay [2] (Homo sapiens, EBC-1).

Turning to `COc1cc2nccc(Oc3ccc(NC(=O)c4cn(CCCO)c(=O)n(-c5ccc(F)cc5)c4=O)cc3F)c2c2c1OCCO2` [Example 99, N-(3-fluoro-4-((5-methoxy-2,3-dihydro-[1,4]dioxino[2,3-f]quinolin-10-yl)oxy)phenyl)-3-(4-fluorophenyl)-1-(3-hydroxypropyl)-2,4-dioxo-1,2,3,4-tetrahydropyrimidine-5-carboxamide], the IC50 in assay [1] (Homo sapiens) was 50 to 200 nM; in assay [2] (Homo sapiens, EBC-1), ≤ 50 nM.

As to `C=CCn1cc(C(=O)Nc2ccc(Oc3ccnc4cc(OC)c5c(c34)OCCO5)c(F)c2)c(=O)n(-c2ccc(F)cc2)c1=O` [Example 100, N-(3-fluoro-4-((5-methoxy-2,3-dihydro-[1,4]dioxino[2,3-f]quinolin-10-yl)oxy)phenyl)-3-(4-fluorophenyl)-1-allyl-2,4-dioxo-1,2,3,4-tetrahydropyrimidine-5-carboxamide], the IC50 is ≤ 50 nM in assay [1] (Homo sapiens) and ≤ 50 nM in assay [2] (Homo sapiens, EBC-1).

For `COc1cc2nccc(Oc3ccc(NC(=O)c4cn(CCF)c(=O)n(-c5ccc(F)cc5)c4=O)cc3F)c2c2c1OCCO2` [Example 101, N-(3-fluoro-4-((5-methoxy-2,3-dihydro-[1,4]dioxino[2,3-f]quinolin-10-yl)oxy)phenyl)-3-(4-fluorophenyl)-1-(2-fluoroethyl)-2,4-dioxo-1,2,3,4-tetrahydropyrimidine-5-carboxamide], the IC50 in assay [1] (Homo sapiens) is ≤ 50 nM; in assay [2] (Homo sapiens, EBC-1), ≤ 50 nM.
